For `NC1CC(=O)N(c2ccc(Oc3ccccc3)cc2)C1` (configuration not stated), which melting point is on record?
Its melting point is 112 to 114 °C.

With `Cc1cccc(C)c1NC(=O)CN1CCNCC1` as the molecule, how does the melting point read?
Its melting point is 53 to 55 °C.

Which melting point does the source give for `CNC(=S)NNC(=O)c1ccccc1` here?
Its melting point is 181 to 183 °C.

For `O=C(O)C(Cc1ccccc1)n1cnnn1` (configuration not stated), which melting point is on record?
The melting point was 162 to 164 °C.

Which melting point does the source give for `O=C(O)c1c(O)cccc1Cl` here?
The melting point was 166 to 168 °C.

For `COC(=O)C1=NN(c2cccc(C(=O)O)c2)C(=O)C1CCO` (configuration not stated), which melting point is on record?
The melting point was 211 to 213 °C.

For `Cc1cc(S(C)(=O)=O)c(C)c(S(=O)(=O)Cl)c1`, which melting point is on record?
Its melting point is 122 to 124 °C.

With `N#Cc1ccc(OC(F)F)c(N)c1` as the molecule, how does the melting point read?
Its melting point is 86 to 88 °C.

Which melting point does the source give for `CNc1cc(-c2cccc(OC)c2)[nH]n1` here?
Its melting point is 109 to 111 °C.

Which melting point does the source give for `CN1CCNc2cccnc21` here?
The melting point was 89 to 91 °C.

For `CN(C)C(=O)c1ccc(Cl)c(S(=O)(=O)Cl)c1`, which melting point is on record?
Its melting point is 106 to 108 °C.

With `NCc1ccc(NC(=O)c2cccnc2)cc1` as the molecule, how does the melting point read?
The melting point was 137 to 139 °C.

For `COc1ccc(OC)c(C(C)NC(=O)CCl)c1` (configuration not stated), which melting point is on record?
The melting point was 103 to 105 °C.

For `Cn1ccc(C(=O)N2CCCC(C(=O)O)C2)cc1=O` (configuration not stated), which melting point is on record?
Its melting point is 208 to 210 °C.

For `NC(=O)c1nn(CC(=O)O)c(=O)c2ccccc12`, which melting point is on record?
Its melting point is 220 to 222 °C.

With `Nc1ccc(-c2nnc3n2CCC3)cc1` as the molecule, how does the melting point read?
The melting point was 311 to 313 °C.

For `Cc1ccc(OCCC(=O)O)c(Br)c1`, which melting point is on record?
Its melting point is 119 to 121 °C.

Which melting point does the source give for `Cc1ccc(C(=O)CCl)cc1C` here?
Its melting point is 51 to 53 °C.

With `COCc1ccccc1C(=O)O` as the molecule, how does the melting point read?
Its melting point is 94 to 96 °C.

For `Cc1c(NC(=O)CCCl)cccc1[N+](=O)[O-]`, which melting point is on record?
The melting point was 131 to 133 °C.

With `Cc1nc(CC(N)=NO)no1` as the molecule, how does the melting point read?
The melting point was 142 to 144 °C.

For `Nc1cccc2[nH]cnc12`, which melting point is on record?
Its melting point is 110 to 112 °C.

With `CC1C=CC(C(=O)O)C2C(=O)N(c3ccccc3)C(=O)C12` (configuration not stated) as the molecule, how does the melting point read?
The melting point was 219 to 221 °C.

Which melting point does the source give for `CCOC(=O)c1ccc(S(=O)(=O)N2CCCC2C(=O)O)o1` (configuration not stated) here?
The melting point was 124 to 126 °C.

Which melting point does the source give for `O=C(O)c1ccc(N2C(=O)CCC2=O)cc1` here?
Its melting point is 210 to 212 °C.

For `CC(=O)c1ccc(S(=O)(=O)NCc2ccc(F)cc2)cc1`, which melting point is on record?
The melting point was 149 to 151 °C.

Which melting point does the source give for `Nc1cc(Cl)n[nH]1` here?
Its melting point is 93 to 95 °C.

For `CCc1nsc(S)n1`, which melting point is on record?
The melting point was 144 to 146 °C.

Which melting point does the source give for `Nn1c(S)nnc1-c1ccccc1Br` here?
The melting point was 188 to 190 °C.

With `O=Cc1ccc(-n2ccnc2)c(F)c1` as the molecule, how does the melting point read?
Its melting point is 69 to 71 °C.

Which melting point does the source give for `NC(=S)c1cc2ccccc2o1` here?
The melting point was 146 to 148 °C.

For `Nc1cc(S(=O)(=O)N2CCCC2)ccc1O`, which melting point is on record?
The melting point was 163 to 165 °C.

Which melting point does the source give for `NC(=O)NCC1CC1` here?
Its melting point is 117 to 119 °C.

With `Cc1ccc(S(=O)(=O)N(CCC(=O)O)c2ccccc2)cc1` as the molecule, how does the melting point read?
The melting point was 145 to 147 °C.

With `O=C(O)c1ccc(-c2cscn2)cc1` as the molecule, how does the melting point read?
Its melting point is 278 to 280 °C.

Which melting point does the source give for `O=C(O)c1cnn(CCCl)c1` here?
The melting point was 147 to 149 °C.

Which melting point does the source give for `Oc1ccc(-c2ccccc2)nc1` here?
The melting point was 174 to 176 °C.

For `CC(NC(=O)c1cccc(Cl)c1Cl)C(=O)O` (configuration not stated), which melting point is on record?
The melting point was 152 to 154 °C.

For `Cc1ccc(N=C=O)c(C#N)c1`, which melting point is on record?
Its melting point is 52 to 54 °C.

Which melting point does the source give for `COC(=O)c1ccc(S(=O)(=O)Cl)c([N+](=O)[O-])c1` here?
Its melting point is 100 to 102 °C.

Which melting point does the source give for `CCOc1ccc(C2CCCN2)cc1` (configuration not stated) here?
The melting point was under 17 °C.

For `CCCOc1c(Cl)cc(C#N)cc1OC`, which melting point is on record?
Its melting point is 31 to 33 °C.

With `O=C(NCc1ccccc1)c1ccc(-n2ccnc2S)cc1` as the molecule, how does the melting point read?
Its melting point is 216 to 218 °C.

With `c1ccc(CN2CCOC(c3nn[nH]n3)C2)cc1` (configuration not stated) as the molecule, how does the melting point read?
Its melting point is 178 to 180 °C.

Which melting point does the source give for `COc1ccc(N)cc1-n1nnnc1C` here?
The melting point was 130 to 132 °C.

For `Cc1cc(N)nc(C(C)C)n1`, which melting point is on record?
The melting point was 196 to 198 °C.

For `C=CCNc1ncc(C(=O)OC)s1`, which melting point is on record?
The melting point was 109 to 111 °C.

Which melting point does the source give for `CC(C)(C)C(=O)Nc1ccc(F)c(C(=O)O)c1` here?
Its melting point is 179 to 181 °C.

With `O=C(O)CCCS(=O)(=O)c1ccc(Br)cc1` as the molecule, how does the melting point read?
The melting point was 117 to 119 °C.

With `COC(=O)c1ccc(S)cc1` as the molecule, how does the melting point read?
The melting point was 53 to 55 °C.

With `O=C(CCl)Nc1cccc(S(=O)(=O)N2CCOCC2)c1` as the molecule, how does the melting point read?
The melting point was 157 to 159 °C.

For `O=C(O)c1cccc(S(=O)(=O)Nc2ccccc2-c2ccccc2)c1`, which melting point is on record?
The melting point was 164 to 166 °C.

Which melting point does the source give for `CC(CC(=O)O)c1ccc(Br)cc1` (configuration not stated) here?
The melting point was 101 to 103 °C.

With `CCCCCCCCCC(=O)N[C@@H](CCC(N)=O)C(=O)O` as the molecule, how does the melting point read?
The melting point was 129 to 131 °C.

Which melting point does the source give for `Cc1ccc(C(=O)O)cc1S(=O)(=O)NCC#N` here?
Its melting point is 212 to 214 °C.

Which melting point does the source give for `O=C(CCl)Nc1cccnc1` here?
The melting point was 179 to 181 °C.

With `CC(O)CCNc1cc2nc[nH]c(=O)c2cc1N` (configuration not stated) as the molecule, how does the melting point read?
Its melting point is 209 to 211 °C.

Which melting point does the source give for `COCc1csc(N)n1` here?
The melting point was 109 to 111 °C.

For `O=C(O)CNC(=O)C1CCC1`, which melting point is on record?
The melting point was 107 to 109 °C.

For `CCCCc1ccc(NS(=O)(=O)c2cccc(C(=O)O)c2)cc1`, which melting point is on record?
Its melting point is 206 to 208 °C.

With `N#Cc1ccccc1CN1CCOC1=O` as the molecule, how does the melting point read?
Its melting point is 91 to 93 °C.

With `CC(C)(CC(=O)O)CC(=O)N1CCOCC1` as the molecule, how does the melting point read?
The melting point was 80 to 82 °C.

With `CC(=O)C(Cl)C(=O)Nc1ccccc1` (configuration not stated) as the molecule, how does the melting point read?
The melting point was 101 to 104 °C.

With `CC(C)OCc1ccc(C(=O)O)cc1` as the molecule, how does the melting point read?
The melting point was 114 to 116 °C.

Which melting point does the source give for `O=C(O)C1COc2ccc(Br)cc21` (configuration not stated) here?
The melting point was 114 to 116 °C.

For `NC(=S)N1CCS(=O)(=O)CC1`, which melting point is on record?
Its melting point is 233 to 235 °C.

Which melting point does the source give for `CCOC1CCN(C(=O)Nc2cccc(C(C)=O)c2)CC1` here?
The melting point was 95 to 97 °C.

With `CN(Cc1ccccc1)c1ccc([N+](=O)[O-])cn1` as the molecule, how does the melting point read?
Its melting point is 56 to 58 °C.

With `CCCC(NC(=O)c1ccccc1)C(N)=S` (configuration not stated) as the molecule, how does the melting point read?
The melting point was 202 to 204 °C.

For `Nc1nc(Cl)ccc1F`, which melting point is on record?
Its melting point is 84 to 86 °C.

With `Clc1nc(-c2ccccc2)c2ccccc2n1` as the molecule, how does the melting point read?
The melting point was 111 to 113 °C.

Which melting point does the source give for `Cc1ccc(Cc2cnc(N)s2)cc1F` here?
The melting point was 139 to 141 °C.
